# Values quoted from earlier work as cited in article PMC12562379, “Facile Synthesis of N-vinylindoles via Knoevenagel Condensation: Molecular Features and Biological Activities” (International Journal of Molecular Sciences, 2025).
# Design: method as in PMID 29925826
# Conditions: NH-acid; cited from earlier work
smiles,measurement,value
c1ccc2[nH]nnc2c1 [1H-benzotriazole],pKa,8.2
